What follows are molecules tested on HL-60 cells (human acute myeloid leukemia cells) (assay: alamarBlue proliferation assay with HL-60 cells). Details: 120 h, 5 days, relative to DMSO baseline level of 1.0, read-out: AVEw, weighted arithmetic mean of normalized fluorescence intensity values (Activity Range), HL-60 proliferation.
Format: cell-based
Description: The antiproliferative activities of compounds falling under formula I, formula II, formula III, formula IV and formula V were investigated on cells or cell lines originating from a disorder of the myeloid cell compartment, the neuroendocrine system, the cervix, and the mucosal epithelium, as well as from the skin epithelium. To this end, HL-60 cells, TT cells, HeLa cells, CAL-27 cells and human primary epidermal keratinocytes (HPEK) were seeded into 96-well plates suitable for fluorescence assays (CORNING #3598) at following initial cell numbers: 1000 cells per well for HL-60; 9000 cells per well for TT; 2000 cells per well for HeLa, 2000 cells per well for CAL-27, 2000 cells per well for HPEK. The cells were treated with compounds at indicated final concentrations (diluted from the 1000× stock-solutions in DMSO to a final DMSO concentration of 0.1% v/v) or with the empty carrier DMSO at 0.1% v/v as control for 5 days. At day 5 after starting the treatments the cells were subjected to the alamarBlue® Proliferation Assay (Bio-Rad Serotec GmbH, BUF012B) according to the protocol of the manufacturer. The readout was taken with a multi-well plate-reader in the fluorescence mode with applying a filter for excitation at 560 nm (band width 10 nm) and for emission at 590 nm (band width 10 nm). Resveratrol (RES) treatment was included as control for growth inhibition.
The assays were performed in duplicate or more replicates of independent single experiments each containing a six-fold replicate for every condition. For every individual plate, the measured fluorescence intensity values of the conditions with compound treatment were normalized against the corresponding equally weighted arithmetic mean of the fluorescence intensity values of the six DMSO treated control wells in order to obtain the relative values to a baseline level of 1.0. The statistical calculations were performed in analogy to the luciferase assay as described above. To this end, two independent outlier analyses were performed according to the methods by Peirce and Chauvenet (Ross, Journal of Engineering Technology 2003, 1-12). Outliers confirmed by at least one of the methods were excluded from the calculations but not more than one value out of six per compound within a single experiment. The weighted arithmetic mean AVEw for each compound was calculated from the normalized values over all independent replicates of the single experiments comprising the six replicates each. The corresponding standard deviation for the weighted arithmetic mean was calculated according to the method described by Bronstein et al. (Bronstein, Semendjajew, Musiol, Mühlig, Taschenbuch der Mathematik, 5th edition 2001 (German), publisher: Verlag Harri Deutsch, Frankfurt am Main and Thun) and was combined with the Gauß′ error propagation associated with the performed calculation for the normalization. The resulting standard deviation is herein referred to as “combined standard deviation”.
HL-60 cells were cultivated according to the protocol of the provider in RPMI 1640 medium (Fisherscientific, #11554526) containing 10% fetal bovine serum (Fisherscientific, #15517589).
A compound is considered as a growth inhibitor of HL-60 cells, if—at a reference concentration of 20 μM—the weighted arithmetic mean of the normalized fluorescence intensity values after addition of the corresponding combined standard deviation amounts to 0.9 or lower, in particular to 0.8 or lower, 0.7 or lower, 0.6 or lower, 0.4 or lower, and 0.2 or lower, relative to the overall basis level of 1.0. The overall basis level was calculated as the weighted arithmetic mean of all normalized values from the DMSO control measurements in analogy to the calculations performed for the test-compounds. The corresponding combined standard deviation for the DMSO values amounts to less than 1·10^−2.

CCc1ccc(Oc2ccc(C(=O)O)cc2)cc1 [Compound 002, 4-(4-ethylphenoxy)benzoic acid] and CCc1ccc(Oc2ccc(C(=O)NO)cc2)cc1 [Compound 165, 4-(4-ethylphenoxy)-N-hydroxybenzamide] fall in the same range of activity at 20 µM: 80 to 90% for the first, 80 to 90% for the second.

First: CCOC(=O)c1ccc(Oc2ccc(C(C)C)cc2)cc1 [Compound 054, ethyl 4-(4-isopropylphenoxy)benzoate]
Second: CCCCc1ccc(Oc2ccc(C(=O)N(C)C)cc2)cc1 [Compound 218, 4-(4-butylphenoxy)-N,N-dimethylbenzamide]
The activity at 20 µM of the first is higher: 80 to 90% for the first, 40 to 60% for the second.

O=C(O)c1ccc(Oc2ccc(C3CC4CCC3CC4)cc2)nc1 (stereo not shown) [Compound 087, 6-(4-((1s,4s)-bicyclo[2.2.2]octan-2-yl)phenoxy)nicotinic acid] and NC(=O)c1ccc(Oc2ccc(C3(C(F)(F)F)CC3)cc2)nc1 [Compound 793, 6-(4-(1-(trifluoromethyl)cyclopropyl)phenoxy)nicotinamide] fall in the same range of activity at 20 µM: 80 to 90% for the first, 80 to 90% for the second.

CCC(C)(C)c1ccc(Oc2ccc(C(=O)N(C)C)cc2)cc1 [Compound 223, N,N-dimethyl-4-(4-(tert-pentyl)phenoxy)benzamide] and CCC(C)(C)c1ccc(Oc2ccc(C(=O)N(C)C)cc2F)cc1 [Compound 581, 3-fluoro-N,N-dimethyl-4-(4-(tert-pentyl)phenoxy)benzamide] fall in the same range of activity at 20 µM: 70 to 80% for the first, 70 to 80% for the second.

First: CCCCCc1ccc(Oc2ccc(C(N)=O)cn2)cc1 [Compound 245, 6-(4-pentylphenoxy)nicotinamide]
Second: CCCCCc1ccc(Oc2ccc(C(=O)N(C)C)cn2)cc1 [Compound 320, N,N-dimethyl-6-(4-pentylphenoxy)nicotinamide]
The activity at 20 µM of the first is higher: 80 to 90% for the first, 40 to 60% for the second.

CCC(C)(C)c1ccc(Oc2ccc(C(N)=O)cn2)cc1 [Compound 248, 6-(4-(tert-pentyl)phenoxy)nicotinamide] and CCC(C)(C)c1ccc(Oc2ccc(C(=O)NC)cn2)cc1 [Compound 298, N-methyl-6-(4-(tert-pentyl)phenoxy)nicotinamide] fall in the same range of activity at 20 µM: 80 to 90% for the first, 80 to 90% for the second.

CCOC(=O)c1ccc(Oc2ccc(C34CC5CC(CC(C5)C3)C4)cc2)c(F)c1 [Compound 414, ethyl 4-(4-((3r,5r,7r)-adamantan-1-yl)phenoxy)-3-fluorobenzoate] and CCOC(=O)c1cnc(Oc2ccc(C34CC5CC(CC(C5)C3)C4)cc2)c(F)c1 [Compound 492, ethyl 6-(4-((3r,5r,7r)-adamantan-1-yl)phenoxy)-5-fluoronicotinate] fall in the same range of activity at 20 µM: 60 to 70% for the first, 60 to 70% for the second.

First: O=C(O)c1cnc(Oc2ccc(C(F)(F)F)cc2)c(F)c1 [Compound 427, 5-fluoro-6-(4-(trifluoromethyl)phenoxy)nicotinic acid]
Second: CCC(C)(C)c1ccc(Oc2ncc(C(=O)N(C)C)cc2F)cc1 [Compound 685, 5-fluoro-N,N-dimethyl-6-(4-(tert-pentyl)phenoxy)nicotinamide]
The activity at 20 µM of the first is higher: 80 to 90% for the first, 70 to 80% for the second.

Compared with CCOC(=O)c1cnc(Oc2ccc(C(C)(C)CC)cc2)c(F)c1 [Compound 477, ethyl 5-fluoro-6-(4-(tert-pentyl)phenoxy)nicotinate], CCOC(=O)c1cnc(Oc2ccc(C3CCCCC3)cc2)c(F)c1 [Compound 488, ethyl 6-(4-cyclohexylphenoxy)-5-fluoronicotinate] is lower in activity at 20 µM: 80 to 90% for the first, 70 to 80% for the second.

First: CN(C)C(=O)c1ccc(Oc2ccc(C3CCCCC3)cc2)c(F)c1 [Compound 592, 4-(4-cyclohexylphenoxy)-3-fluoro-N,N-dimethylbenzamide]
Second: CN(C)C(=O)c1ccc(Oc2ccc(C3(C(F)(F)F)CC3)cc2)c(F)c1 [Compound 786, 3-fluoro-N,N-dimethyl-4-(4-(1-(trifluoromethyl)cyclopropyl)phenoxy)benzamide]
The activity at 20 µM of the first is higher: 80 to 90% for the first, 70 to 80% for the second.

Compared with CNC(=O)c1cnc(Oc2ccc(C34CC5CC(CC(C5)C3)C4)cc2)c(F)c1 [Compound 674, 6-(4-((3r,5r,7r)-adamantan-1-yl)phenoxy)-5-fluoro-N-methylnicotinamide], CN(C)C(=O)c1cnc(Oc2ccc(C34CC5CC(CC(C5)C3)C4)cc2)c(F)c1 [Compound 700, 6-(4-((3r,5r,7r)-adamantan-1-yl)phenoxy)-5-fluoro-N,N-dimethylnicotinamide] is lower in activity at 20 µM: 70 to 80% for the first, 60 to 70% for the second.

First: CCOC(=O)c1ccc(Oc2ccc(C3(C(F)(F)F)CC3)cc2)c(F)c1 [Compound 723, ethyl 3-fluoro-4-(4-(1-(trifluoromethyl)cyclopropyl)phenoxy)benzoate]
Second: CCOC(=O)c1ccc(Oc2ccc(C3(C(F)(F)F)CC3)cc2Cl)nc1 [Compound 756, ethyl 6-(2-chloro-4-(1-(trifluoromethyl)cyclopropyl)phenoxy)nicotinate]
The activity at 20 µM of the first is higher: 80 to 90% for the first, 70 to 80% for the second.

O=C(O)c1ccc(Oc2ccc(C3(C(F)(F)F)CC3)cc2Cl)nc1 [Compound 738, 6-(2-chloro-4-(1-(trifluoromethyl)cyclopropyl)phenoxy)nicotinic acid] and CN(C)C(=O)c1ccc(Oc2ccc(C3(C(F)(F)F)CC3)cc2Cl)cc1 [Compound 792, 4-(2-chloro-4-(1-(trifluoromethyl)cyclopropyl)phenoxy)-N,N-dimethylbenzamide] fall in the same range of activity at 20 µM: 80 to 90% for the first, 80 to 90% for the second.

COC(=O)c1ccc(Oc2ccc(C3(C(F)(F)F)CC3)cc2)nc1 [Compound 739, methyl 6-(4-(1-(trifluoromethyl)cyclopropyl)phenoxy)nicotinate] and CNC(=O)c1ccc(Oc2ccc(C3(C(F)(F)F)CC3)cc2)nc1 [Compound 811] fall in the same range of activity at 20 µM: 80 to 90% for the first, 80 to 90% for the second.

First: COC(=O)c1ccc(Oc2ccc(C3(C(F)(F)C(F)(F)F)CC3)cc2)nc1 [Compound 740, methyl 6-(4-(1-(perfluoroethyl)cyclopropyl)phenoxy)nicotinate]
Second: CN(C)C(=O)c1ccc(Oc2ccc(C3(C(F)(F)C(F)(F)F)CC3)cc2)nc1 [Compound 821, N,N-dimethyl-6-(4-(1-(perfluoroethyl)cyclopropyl)phenoxy)nicotinamide]
The activity at 20 µM of the first is higher: 80 to 90% for the first, 60 to 70% for the second.

For CN(C)C(=O)c1ccc(Oc2ccc(C3(C(F)(F)C(F)(F)F)CC3)cc2)cc1 [Compound 785, N,N-dimethyl-4-(4-(1-(perfluoroethyl)cyclopropyl)phenoxy)benzamide], the activity at 20 µM was 70 to 80%.

Source: US12600696B2 (XENIOPRO GMBH, priority 2017, dated 2026)
